Laboratory results from patent publication US20050214938A1, “Cardiac bodies: clusters of spontaneously contracting cells for regenerating cardiac function” (priority 2004, published 2005).

Tests used:
[1] = test system: hES-derived cardiomyocytes; test: Pharmacological response: contraction rate of beating areas; assay type: cell-based, human; details: for chronotropic effect: FIG. 5 Panels B-E
Method: EBs were plated on to gelatin-coated 24-well plates and allowed to differentiate, as in Example 2. Contracting cardiomyocytes at differentiation day 15-21 were used for examining pharmacological response. The frequency of the spontaneous beating was measured by counting the contraction rate of the beating areas maintained in the differentiation medium in a 37° C. heating chamber of an inverted microscope. The cells were then incubated with test compounds in the incubator for 20-30 min, and observed for contraction rate. Dose-dependent effects were determined by cumulatively applying of increasing concentrations of each substrate. Data represent the mean pulsation rate±standard error of the mean measured on 10-20 beating areas.
Differentiated cells were incubated with various concentrations of the drug and the number of beats per minute was counted. The cells were then washed with medium, maintained in differentiation medium for 24 h and observed for the time taken to recover contractility.

mouse ES cells = details: Wobus et al. 1997; cited from earlier work
[2] = test system: hES cells of the H1 or H9 line
Method: hES cells of the H1 or H9 line being cultured as embryoid bodies were treated at differentiation day 1-4,4-6 or 6-8 with 5-aza-deoxy-cytidine, a cytosine analog that affects DNA methylation, thereby activating gene expression. Cells were harvested at day 15, and analyzed for cardiac α-MHC by real-time RT-PCR.
The RT-PCR assay from Example 3 was adapted for the Taqman™ 7700 sequence detection system using the same primers, amplifying for 40 cycles at 95° C. for 15 sec and 60° C. for 1 min. 18S ribosomal RNA was amplified for a control using a kit for Taqman™ ribosomal RNA control reagents (Applied Biosystems). Reactions were analyzed by ABI Prism™ 7700 Sequence Detection system.
Other reagents examined for an ability to induce cardiomyocyte differentiation included dimethyl sulfoxide (DMSO) and all-trans retinoic acid (RA).
Retinoic acid was applied to differentiating hES cultures at doses between 10^−9 and 10^−[…].

[3] = test system: cardiomyogenic cell line from bone marrow stroma; details: treated for 24 hours; cited from earlier work
hES cells of the H7 line = test: Direct differentiation paradigm without embryoid body stage; assay type: cell-based, human; details: 10 μM at day 10-12 or 12-14
Method: Cardiomyocyte differentiation was also achieved in a direct differentiation paradigm. Undifferentiated hES cells of the H7 line were dissociated and plated directly onto gelatin-coated plates without going through an embryoid body stage. The plated cells were cultured in differentiation medium (80% KO-DMEM, 1 mM L-glutamine, 0.1 mM p-mercaptoethanol, 1% amino acids, and 20% fetal bovine serum). Contracting cardiomyocytes were found at day 18 in cultures treated with 10 μM 5-aza-deoxy-cytidine at day 10-12 or 12-14, and at later times in all cultures.

CC(C)(C)NCC(O)c1cc(Cl)c(N)c(Cl)c1 (centres unmarked) [clenbuterol]
beating rate after treatment ([1]; cells taken at Day 72, 1-10 nM, from about 72 beats/min, p<0.005): about 98 beats/min

CC1=C(/C=C/C(C)=C/C=C/C(C)=C/C(=O)O)C(C)(C)CCC1 [RA, all-trans retinoic acid]
effect on cardiac differentiation (mouse ES cells): accelerates ES cell-derived cardiac differentiation | beating cells compared with untreated cultures ([2]; days 4-8, 8-15, or 4-15, doses between 10^−9 and 10^−5 μM): no increase

COc1ccc([C@@H]2Sc3ccccc3N(CCN(C)C)C(=O)[C@@H]2OC(C)=O)cc1 [diltiazem]
beating areas that stopped contraction ([1]; 10^−5 M): 100% | inhibition of beating rate ([1]; differentiation day 15-21, 20-30 min incubation, increasing concentrations): concentration-dependent manner

Nc1ncn([C@@H]2O[C@H](CO)[C@@H](O)[C@H]2O)c(=O)n1 [5-azacytidine]
cells forming myotube-like structures, acquiring cardiomyocyte markers and beginning to beat [3]: 30%

CC(C)NCC(O)c1ccc(O)c(O)c1 (centres unmarked) [isoprenaline]
chronotropic effect [1]: positive chronotropic effects

CNC[C@H](O)c1cccc(O)c1 [phenylephrine]
chronotropic effect [1]: positive chronotropic effects

C[S+](C)[O-] [DMSO, dimethyl sulfoxide]
toxicity to the cells [2]: toxic | beating areas compared with non-treated cultures ([2]; 0.5%, days 0-4): fewer beating areas | beating cells ([2]; 0.8% or 1%): absent | α-MHC expression compared with untreated cultures ([2]; DMSO treatment): significant reduction

Nc1ncn([C@H]2C[C@H](O)[C@@H](CO)O2)c(=O)n1 [5-aza-deoxy-cytidine]
day at which contracting cardiomyocytes were found (hES cells of the H7 line): 18 days | expression of cardiac α-MHC ([2]; 1 to 10 μM at day 6-8, harvested day 15): significantly increased
